Test results as given in patent publication US5075301A, “Furan derivatives useful for the treatment of gastro-intestinal disorders” (Kyowa Hakko Kogyo, Co., Ltd., priority 1989, dated 1991).

How the values were obtained:
[1] = tested on: male dd mice; assay: Acute toxicity test (minimum lethal dose, MLD); format: in vivo; details: p.o., 7 days
Protocol: Using male dd mice weighing 20±1 g in groups of 3, each test compound was orally administered (300 mg/kg, p.o.).

[2] = tested on: ileal strips; assay: Gastrointestinal motility stimulation test (ileal strip, electric transmural stimulation); parameters: species or system male Hartley guinea pigs; details: Cavia porcellus; for activation at 10 µg/mL: read-out: Amplification Degree (Electric Transmural Stimulation), 10^-5 g/ml; for activation at 1 µg/mL: read-out: Amplification Degree (Electric Transmural Stimulation), 10^-6 g/ml
Protocol: From male Hartley guinea pigs weighing 250-400 g, ileal strips, 2-3 cm long, were isolated. The ileal strip was suspended in a Tyrode's solution bath (30 ml) while supplying a mixture gas of 95% O2 -5% CO2 and maintained at 37±1° C. and using an isotonic transducer the longitudinal contractions of the strip were recorded. Supramaximal electric transmural stimulation of 1-millisecond duration was given at 10-second intervals. Each test compound was dissolved or suspended in physiological saline and added into the organ bath. The effect of each test compound on electric transmural stimulation was calculated from the amplitude of contractions (A) before administration and the amplitude of contractions (B) after administration using the following equation. [formula]

[3] = tested on: histamine H2 -receptor; assay: antihistaminic (histamine H2 -receptor blocking) activity; details: no method given
[4] = tested on: histamine H2 -receptor; details: known; cited from earlier work
[5] = tested on: gastrointestinal tract; details: Scand. J. Gastroenterol., 21 (Suppl. 121), 30 (1986); cited from earlier work

Q: What does the source list for CNC(=C[N+](=O)[O-])NCCNCc1ccc(CN(C)C)o1 [Compound 1, N-[2-[(5-Dimethylaminomethyl-2-furanyl)methylamino]ethyl]-N'-methyl-2-nitroethene-1,1-diamine]?
A: Acute Toxicity (MLD) [1]: > 300 mg/kg; activation at 10 µg/mL [2]: 30%

Q: For CNC(NCCNCc1ccc(CN(C)C)o1)=C(C#N)C#N [Compound 2, [[2-[(5-Dimethylaminomethyl-2-furanyl)methylamino]ethyl]amino(methylamino)methylene]propanedinitrile], which “Acute Toxicity (MLD)” value [1] is on record?
A: Its value is greater than 300 mg/kg.

Q: What about the activation at 10 µg/mL [2] of the same compound?
A: The activation at 10 µg/mL was 80.5%.

Q: What about the activation at 1 µg/mL [2] of the same compound?
A: The activation at 1 µg/mL was 31%.

Q: What does the source list for CNC(NCCCNCc1ccc(CN(C)C)o1)=C(C#N)C#N [Compound 6, [[3-[(5-Dimethylaminomethyl-2-furanyl)methylamino]propylamino](methylamino)methylene]propanedinitrile]?
A: Acute Toxicity (MLD) [1]: > 300 mg/kg; activation at 10 µg/mL [2]: 34%

Q: Which “Acute Toxicity (MLD)” value [1] does the source give for CNC(NCCNC(=O)c1ccc(CN(C)C)o1)=C(C#N)C#N [Compound 10, 5-(Dimethylaminomethyl)-N-[2-(1-methylamino-2,2-dicyanovinylamino)ethyl]-2-furancarboxamide] here?
A: The value was greater than 300 mg/kg.

Q: What about the activation at 10 µg/mL [2] of the same compound?
A: The activation at 10 µg/mL was 36.4%.

Q: And the activation at 1 µg/mL [2]?
A: The activation at 1 µg/mL was 15.3%.

Q: Which “Acute Toxicity (MLD)” value [1] does the source give for CNC(NCCNCc1ccc(CN(C(C)C)C(C)C)o1)=C(C#N)C#N [Compound 12, [[2-[(5-Diisopropylaminomethyl-2-furanyl)methylamino]ethyl]amino(methylamino)methylene]propanedinitrile] here?
A: Its value is greater than 300 mg/kg.

Q: And the activation at 10 µg/mL [2]?
A: The activation at 10 µg/mL was 55.8%.

Q: And the activation at 1 µg/mL [2]?
A: The activation at 1 µg/mL was 34.3%.

Q: Which results are given for CNC(NCCNCc1ccc(CN2CCCC2)o1)=C(C#N)C#N [Compound 13, [[2-[(5-Pyrrolidinylmethyl-2-furanyl)methylamino]ethyl](methylamino)methylene]propanedinitrile]?
A: Acute Toxicity (MLD) [1]: > 300 mg/kg; activation at 10 µg/mL [2]: 70.8%; activation at 1 µg/mL [2]: 34.5%

Q: With CNC(NCCNCc1ccc(CN2CCCCC2)o1)=C(C#N)C#N [Compound 14, [[2-[(5-Piperidinomethyl-2-furanyl)methylamino]ethyl](methylamino)methylene]propanedinitrile] as the compound, how does the “Acute Toxicity (MLD)” value [1] read?
A: Its value is greater than 300 mg/kg.

Q: What about the activation at 10 µg/mL [2] of the same compound?
A: Its activation at 10 µg/mL is 79.3%.

Q: What about the activation at 1 µg/mL [2] of the same compound?
A: The activation at 1 µg/mL was 37.3%.

Q: Which “Acute Toxicity (MLD)” value [1] does the source give for CNc1c(NCCNCc2ccc(CN3CCCCC3)o2)c(=O)c1=O [Compound 17, 1-Methylamino-2-[[2-[(5-piperidinomethyl-2-furanyl)methylamino]ethyl]amino]cyclobutene-3,4-dione] here?
A: The value was greater than 300 mg/kg.

Q: And the activation at 10 µg/mL [2]?
A: Its activation at 10 µg/mL is 75%.

Q: And the activation at 1 µg/mL [2]?
A: The activation at 1 µg/mL was 19.5%.

Q: Which results are given for CN(C)Cc1ccc(CNCCN2CCNC2=C(C#N)C#N)o1 [Compound 22, [1-[2-[(5-Dimethylaminomethyl-2-furanyl)methylamino]ethyl]-2-imidazolidinylidene]propanedinitrile]?
A: Acute Toxicity (MLD) [1]: > 300 mg/kg; activation at 1 µg/mL [2]: 56%

Q: Which results are given for CCN(C)Cc1ccc(CNCCN2CCNC2=C(C#N)C#N)o1 [Compound 25, [1-[2-[(5-Ethylmethylaminomethyl-2-furanyl)methylamino]ethyl]-2-imidazolidinylidene]propanedinitrile]?
A: Acute Toxicity (MLD) [1]: > 300 mg/kg; activation at 1 µg/mL [2]: 63.5%

Q: Which “Acute Toxicity (MLD)” value [1] does the source give for N#CC(C#N)=C1NCCN1CCNCc1ccc(CN2CCCC2)o1 [Compound 27, [1-[2-[(5-Pyrrolidinylmethyl-2-furanyl)methylamino]ethyl]-2-imidazolidinylidene]propanedinitrile] here?
A: Its value is greater than 300 mg/kg.

Q: What about the activation at 1 µg/mL [2] of the same compound?
A: The activation at 1 µg/mL was 12%.

Q: For N#CC(C#N)=C1NCCN1CCNCc1ccc(CN2CCCCC2)o1 [Compound 28, [1-[2-[(5-Piperidinomethyl-2-furanyl)methylamino]ethyl]-2-imidazolidinylidene]propanedinitrile], which “Acute Toxicity (MLD)” value [1] is on record?
A: Its value is 100 mg/kg.

Q: Which “Acute Toxicity (MLD)” value [1] does the source give for N#CC(C#N)=C1NCCN1CCNCc1ccc(CN2CCCCCC2)o1 [Compound 29, [1-[2-[(5-Perhydroazepinylmethyl-2-furanyl)methylamino]ethyl]-2-imidazolidinylidene]propanedinitrile] here?
A: Its value is 200 mg/kg.

Q: What about the activation at 1 µg/mL [2] of the same compound?
A: Its activation at 1 µg/mL is 68%.

Q: For CC1CCN(Cc2ccc(CNCCN3CCNC3=C(C#N)C#N)o2)CC1 [Compound 32, [1-[2-[[5-(4-Methylpiperidinomethyl)-2-furanyl]methylamino]ethyl]-2-imidazolidinylidene]propanedinitrile], which “Acute Toxicity (MLD)” value [1] is on record?
A: Its value is greater than 300 mg/kg.

Q: What about the activation at 1 µg/mL [2] of the same compound?
A: Its activation at 1 µg/mL is 52%.

Q: Which “Acute Toxicity (MLD)” value [1] does the source give for COC1CCCN(Cc2ccc(CNCCN3CCNC3=C(C#N)C#N)o2)C1 (centres unmarked) [Compound 34, [1-[2-[[5-(3-Methoxypiperidinomethyl)-2-furanyl]methylamino]ethyl]-2-imidazolidinylidene]propanedinitrile] here?
A: Its value is greater than 300 mg/kg.

Q: What about the activation at 10 µg/mL [2] of the same compound?
A: The activation at 10 µg/mL was 81.3%.

Q: What about the activation at 1 µg/mL [2] of the same compound?
A: The activation at 1 µg/mL was 23%.

Q: For N#CC(C#N)=C1NCCN1CCNCc1ccc(CN2CCSCC2)o1 [Compound 38], which “Acute Toxicity (MLD)” value [1] is on record?
A: The value was greater than 300 mg/kg.

Q: What about the activation at 1 µg/mL [2] of the same compound?
A: Its activation at 1 µg/mL is 34.5%.

Q: Which results are given for CN(CCN1CCNC1=C(C#N)C#N)Cc1ccc(CN2CCCCC2)o1 [Compound 45, [1-[2-[N-(Methyl)-N-[(5-piperidinomethyl-2-furanyl)methyl]amino]ethyl]-2-imidazolidinylidene]-propanedinitrile]?
A: Acute Toxicity (MLD) [1]: > 300 mg/kg; activation at 10 µg/mL [2]: 72.1%; activation at 1 µg/mL [2]: 43.8%

Q: Which “Acute Toxicity (MLD)” value [1] does the source give for CCN(CC)CCNC(=O)c1cc(Cl)c(N)cc1OC [Metoclopramide, reference compound] here?
A: The value was 200 mg/kg.

Q: And the activation at 10 µg/mL [2]?
A: Its activation at 10 µg/mL is 33.4%.

Q: And the activation at 1 µg/mL [2]?
A: The activation at 1 µg/mL was 18%.

Q: Which results are given for CNC(=C[N+](=O)[O-])NCCSCc1ccc(CN(C)C)o1 [Ranitidine, reference compound]?
A: antihistaminic activity [3]: found; histamine H2 -receptor blocking activity [4]: having histamine H2 -receptor blocking activity; Acute Toxicity (MLD) [1]: > 300 mg/kg; activation at 10 µg/mL [2]: 42.2%; activation at 1 µg/mL [2]: 35%; activity to stimulate motility of the gastrointestinal tract [5]: weak
